# In ChEMBL document CHEMBL5046279, “Discovery of a Partial Glucokinase Activator Clinical Candidate: Diethyl ((3-(3-((5-(Azetidine-1-carbonyl)pyrazin-2-yl)oxy)-5-isopropoxybenzamido)-1H-pyrazol-1-yl)methyl)phosphonate (BMS-820132)” (J Med Chem, 2022):
# Tests used:
# [1] = Volume of distribution at steady state in Beagle dog at 3 mg/kg, iv measured upto 24 hrs; assay type: ADME, organism-based, Canis lupus familiaris; settings: in vivo, read-out: Vdss
# [2] = Volume of distribution at steady state in cynomolgus monkey at 3 mg/kg, iv measured upto 24 hrs; assay type: ADME, organism-based, Macaca fascicularis; settings: in vivo, read-out: Vdss
# [3] = tested on: Mus musculus; assay: Anti-hyperglycemic activity in C57BL/6J DIO mouse assessed as reduction in plasma glucose level at 30 umol/kg, po qd measured on day 14 by OGTT; assay type: functional; set-up: scale not given: the % may be the effect or the level left; settings: dose 30 µM/Kg; time 24 hrs; at 30 µmol/kg
# [4] = Tmax in cynomolgus monkey at 3 mg/kg, po measured upto 24 hrs; assay type: ADME, organism-based, Macaca fascicularis; settings: in vivo
# [5] = Aqueous solubility of the compound at pH 6.5 using crystaline form of sample; assay type: physicochemical
# [6] = tested on: Salmonella typhimurium; assay: Mutagenicity in Salmonella typhimurium TA100 at 5000 ug/plate in presence of S9 fraction by Ames test; assay type: toxicity, organism-based; settings: salmonella enterica subsp. enterica serovar typhimurium, dose 5000 µg
# [7] = AUC (0 to 24 hrs) in CD1 mouse at 5 mg/kg, po measured upto 24 hrs by LC-MS/MS analysis; assay type: ADME, organism-based; set-up: route oral, dose 5 mg/kg, time <=24; settings: in vivo
# [8] = tested on: Mus musculus; assay: Anti-hyperglycemic activity in C57BL/6J DIO mouse assessed as reduction in plasma glucose level at 3 umol/kg measured after 14 days; assay type: functional; set-up: scale not given: the % may be the effect or the level left; settings: dose 3 µM/Kg; time 14 day; at 3 µmol/kg
# [9] = Systemic plasma clearance in cynomolgus monkey at 3 mg/kg, iv measured upto 24 hrs; assay type: ADME, organism-based, Macaca fascicularis
# [10] = tested on: Mus musculus; assay: Anti-hyperglycemic activity in C57BL/6J DIO mouse assessed as reduction in plasma glucose level at 3 umol/kg, po qd measured on day 14 by OGTT; assay type: functional; set-up: scale not given: the % may be the effect or the level left; settings: dose 3 µM/Kg; time 24 hrs; at 3 µmol/kg
# [11] = tested on: CHO; assay: Mutagenicity in CHO cells; assay type: toxicity, cell-based, Cricetulus griseus; settings: chinese hamster
# [12] = tested on: Mus musculus; assay: Anti-hyperglycemic activity in C57BL/6J DIO mouse assessed as reduction in plasma glucose AUC at 0.3 umol/kg incubated for 120 mins by OGTT; assay type: functional; set-up: scale not given: the % may be the effect or the level left; settings: dose 0.3 µM/Kg, 2 h, at 0.3 µmol/kg
# [13] = Oral bioavailability in Sprague-Dawley rat at 5 mg/kg measured upto 24 hrs by LC-MS/MS analysis; assay type: ADME, organism-based; settings: in vivo
# [14] = AUC (0 to 24 hrs) in Beagle dog at 3 mg/kg, po measured upto 24 hrs; assay type: ADME, organism-based, Canis lupus familiaris; set-up: route oral, dose 3 mg/kg, time <=24; settings: in vivo
# [15] = tested on: Mus musculus; assay: Anti-hyperglycemic activity in C57BL/6J DIO mouse assessed as reduction in plasma glucose AUC at 10 umol/kg incubated for 120 mins by OGTT; assay type: functional; set-up: scale not given: the % may be the effect or the level left; settings: dose 10 µM/Kg, 2 h, at 10 µmol/kg
# [16] = Protein binding in human serum; assay type: ADME, cell-free; settings: read-out: PB (converted)
# [17] = target: T1, Cytochrome P450 2C8 (Homo sapiens, UniProt P10632); assay: Inhibition of CYP2C8 (unknown origin); assay type: ADME
# T1 sequence (P10632 whole entry): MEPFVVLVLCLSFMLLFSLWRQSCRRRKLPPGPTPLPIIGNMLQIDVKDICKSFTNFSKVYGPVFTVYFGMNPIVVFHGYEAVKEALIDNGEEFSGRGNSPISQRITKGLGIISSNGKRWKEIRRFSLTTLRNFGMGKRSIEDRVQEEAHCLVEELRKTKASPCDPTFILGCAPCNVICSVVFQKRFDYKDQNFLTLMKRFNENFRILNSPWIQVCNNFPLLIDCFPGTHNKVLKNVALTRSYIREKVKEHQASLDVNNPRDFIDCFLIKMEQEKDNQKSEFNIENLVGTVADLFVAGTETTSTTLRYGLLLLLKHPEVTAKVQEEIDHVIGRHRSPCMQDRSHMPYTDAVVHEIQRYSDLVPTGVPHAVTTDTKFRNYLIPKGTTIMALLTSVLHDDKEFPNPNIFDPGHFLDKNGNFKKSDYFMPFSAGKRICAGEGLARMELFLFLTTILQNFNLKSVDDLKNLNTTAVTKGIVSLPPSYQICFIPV
# [18] = AUC (0 to 24 hrs) in CD1 mouse at 2.5 mg/kg, iv measured upto 24 hrs by LC-MS/MS analysis; assay type: ADME, organism-based; set-up: route intravenous, dose 2.5 mg/kg, time <=24; settings: in vivo
# [19] = tested on: sodium channel; assay: Inhibition of sodium channel (unknown origin) at 4 Hz at 10 uM by patch clamp assay relative to control; assay type: toxicity; settings: human
# [20] = Cmax in cynomolgus monkey at 3 mg/kg, po measured upto 24 hrs; assay type: ADME, organism-based, Macaca fascicularis; set-up: route oral, dose 3 mg/kg, time <=24; settings: in vivo
# [21] = Volume of distribution at steady state in Sprague-Dawley rat at 2.5 mg/kg, iv measured upto 24 hrs by LC-MS/MS analysis; assay type: ADME, organism-based; settings: in vivo, read-out: Vdss
# [22] = Tmax in Beagle dog at 3 mg/kg, po measured upto 24 hrs; assay type: ADME, organism-based, Canis lupus familiaris; settings: in vivo
# [23] = tested on: Mus musculus; assay: Anti-hyperglycemic activity in C57BL/6J DIO mouse assessed as reduction in plasma glucose AUC at 3 umol/kg incubated for 120 mins by OGTT; assay type: functional; set-up: scale not given: the % may be the effect or the level left; settings: dose 3 µM/Kg, 2 h, at 3 µmol/kg
# [24] = tested on: Mus musculus; assay: Anti-hyperglycemic activity in C57BL/6J DIO mouse assessed as reduction in plasma glucose AUC at 3 umol/kg, po measured after 120 mins by OGTT; assay type: functional; set-up: scale not given: the % may be the effect or the level left; settings: dose 3 µM/Kg, 2 h, at 3 µmol/kg
# [25] = Phototoxicity in BALB/c mouse 3T3 fibroblasts; assay type: toxicity, cell-based
# [26] = tested on: Salmonella typhimurium; assay: Mutagenicity in Salmonella typhimurium TA98 at 5000 ug/plate in absence of S9 fraction by Ames test; assay type: toxicity, organism-based; settings: salmonella enterica subsp. enterica serovar typhimurium; dose 5000 µg
# [27] = target: T2, Hexokinase-4 (Mus musculus, UniProt P52792); assay: Activation of recombinant mouse full length liver glucokinase expressed in Escherichia coli incubated for 10 mins in presence of 12 mM glucose by plate reader analysis
# T2 sequence (P52792 whole entry): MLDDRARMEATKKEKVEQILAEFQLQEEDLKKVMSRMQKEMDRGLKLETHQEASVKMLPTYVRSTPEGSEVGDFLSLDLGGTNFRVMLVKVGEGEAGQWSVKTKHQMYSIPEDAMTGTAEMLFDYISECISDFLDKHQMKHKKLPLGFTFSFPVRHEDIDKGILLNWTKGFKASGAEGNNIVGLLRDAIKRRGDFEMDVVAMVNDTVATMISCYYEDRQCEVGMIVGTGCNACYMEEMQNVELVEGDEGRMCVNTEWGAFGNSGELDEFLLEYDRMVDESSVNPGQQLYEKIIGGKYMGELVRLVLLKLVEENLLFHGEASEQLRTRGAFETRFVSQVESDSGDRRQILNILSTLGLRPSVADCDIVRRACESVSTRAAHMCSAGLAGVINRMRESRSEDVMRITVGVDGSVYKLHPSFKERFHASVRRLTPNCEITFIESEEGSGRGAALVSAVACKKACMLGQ
# [28] = Systemic plasma clearance in Beagle dog at 3 mg/kg, iv measured upto 24 hrs; assay type: ADME, organism-based, Canis lupus familiaris
# [29] = Half life in Beagle dog at 3 mg/kg, iv measured upto 24 hrs; assay type: ADME, organism-based, Canis lupus familiaris; settings: in vivo
# [30] = AUC (0 to 24 hrs) in cynomolgus monkey at 3 mg/kg, po measured upto 24 hrs; assay type: ADME, organism-based, Macaca fascicularis; set-up: route oral, dose 3 mg/kg, time <=24; settings: in vivo
# [31] = tested on: Salmonella typhimurium; assay: Mutagenicity in Salmonella typhimurium TA1535 at 5000 ug/plate in absence of S9 fraction by Ames test; assay type: toxicity, organism-based; settings: salmonella enterica subsp. enterica serovar typhimurium; dose 5000 µg
# [32] = AUC (0 to 24 hrs) in Sprague-Dawley rat at 2.5 mg/kg, iv measured upto 24 hrs by LC-MS/MS analysis; assay type: ADME, organism-based; set-up: route intravenous, dose 2.5 mg/kg, time <=24; settings: in vivo
structure (smiles),measurement,setting,value
CCOP(=O)(Cn1ccc(NC(=O)c2cc(Oc3cnc(C(=O)N4CCC4)cn3)cc(OC(C)C)c2)n1)OCC,Vd,[1],0.5 L/kg
same,Vd,[2],1.1 L/kg
same,Activity,[3],-46%
same,Tmax,[4],1.3 h
same,solubility,[5],10 µg/mL
same,Activity,[6],Non-Toxic
same,AUC(0-t),[7],49.7 µM·h
same,Activity,[8],-48%
same,clearance,[9],22.7 mL/min/kg
same,Activity,[10],-16%
same,Activity,[11],Toxic
same,Activity,[12],-18%
same,bioavailability,[13],90%
same,AUC(0-t),[14],8 µM·h
same,Activity,[15],-62%
same,fraction unbound,[16],0.054
same,IC50,[17],7.7 µM
same,AUC(0-t),[18],24.9 µM·h
same,inhibition at 10 µM,[19],12%
same,Cmax,[20],380 nM
same,Vd,[21],0.3 L/kg
same,Tmax,[22],0.8 h
same,Activity,[23],-50%
same,Activity,[24],-31%
same,Activity,[25],Toxic
same,Activity,[26],Non-Toxic
same,EC50,[27],0.032 µM
same,clearance,[28],7.2 mL/min/kg
same,half-life,[29],1.8 h
same,AUC(0-t),[30],0.57 µM·h
same,Activity,[31],Non-Toxic
same,AUC(0-t),[32],16.6 µM·h
